Publication PMC6769468, “Endogenous Neuropeptide Nocistatin Is a Direct Agonist of Acid-Sensing Ion Channels (ASIC1, ASIC2 and ASIC3)” (Biomolecules, 2019)
Ends that are not written are not given here.

Target: T1, rat ASIC1a (Rattus norvegicus, UniProt P55926)
T1 construct: expressed in transfected cells; host or cells: Xenopus laevis oocytes (injected)
T1 sequence (P55926 1-526): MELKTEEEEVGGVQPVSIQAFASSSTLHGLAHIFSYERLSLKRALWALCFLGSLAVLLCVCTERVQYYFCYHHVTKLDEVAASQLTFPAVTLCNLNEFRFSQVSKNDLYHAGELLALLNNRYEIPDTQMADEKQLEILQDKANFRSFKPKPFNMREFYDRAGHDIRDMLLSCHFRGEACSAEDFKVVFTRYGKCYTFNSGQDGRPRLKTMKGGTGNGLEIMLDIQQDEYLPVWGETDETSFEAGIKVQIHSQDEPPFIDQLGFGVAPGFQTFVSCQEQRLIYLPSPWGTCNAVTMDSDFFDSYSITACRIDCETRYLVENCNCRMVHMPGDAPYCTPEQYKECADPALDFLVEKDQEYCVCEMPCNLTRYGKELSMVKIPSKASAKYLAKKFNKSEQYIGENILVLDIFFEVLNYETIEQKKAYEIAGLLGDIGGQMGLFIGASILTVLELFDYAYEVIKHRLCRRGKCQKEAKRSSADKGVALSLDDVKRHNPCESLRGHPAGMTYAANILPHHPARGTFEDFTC
Test: ASIC1a steady-state desensitization (SSD) by rNS preconditioning
Assay type: cell-based
Settings: preconditioning with 0.04 to 0.1 mM rNS, then 1 mM rNS stimulus; n = 4
Method: Oocytes expressed rASIC1a, rASIC1b, rASIC2a, and rASIC3 homomeric channels were prepared as described. Injected oocytes were kept for two–three days at 19 °C and then for up to seven days at 15 °C in ND-96 medium supplemented with gentamycin (50 μg·mL^−1) and containing (in mM): 96 NaCl, 2 KCl, 1.8 CaCl2, 1 MgCl2, and 10 HEPES titrated to pH 7.4 with NaOH. Electrophysiological recordings were performed using the GeneClamp500 amplifier (Axon Instruments, Inverurie, UK) at a holding potential of -50 mV. The data were filtered at 20 Hz and digitized at 100 Hz using the L780 AD converter (L-Card, Moscow, Russia). Microelectrodes were filled with 3 M KCl. […]
Figure 2 Effects of nocistatin on rat ASIC1a channels. […] Calculated parameters of EC50 for non-discriminated sites, or EC501 for “cooperative” sites and EC502 for single site, are shown as a result of experimental data mathematical processing. The peak current amplitude is normalized to the maximum amplitude (Imax) calculated for each oocyte by individual fitting. […] Two independent dose-response curves were measured for the 1st (blue line) and the 2nd (green line) peak components of the current. Calculated parameters of IC50 are shown as a result of experimental data mathematical processing by F3(x) logistic equation (see Materials and Methods for detailed description). […]

## MPRVRSVVQARDAEPEADAEPVADEADEVEQKQLQ [rNS]
  Steady-state desensitization (SSD): does not -induce SSD
